Assay results taken from US20030206968A1, “Fungicidal mixtures” (priority 1999, published 2003).
Where two headings read alike, the source gives them in different places.

Columns and labels:
Assay type in all cases: in vivo
Blumeria graminis [1] = assay: Greenhouse, Blumeria graminis on barley, 2 days curative; settings: Example 26
Procedure: The trials are carried out under greenhouse (Examples 1 to 32) or field conditions (Examples 33 to 40) in residual or curative applications. The fungicides are applied in single treatments, or in a combination comprising an azolopyrimidine of formula I and a compound selected from the classes (A), (B) and (C) as defined above. The compounds are applied in form of an aqueous spray mix obtained from a concentrated formulation or the technical material.
(§1) 1. Seed is planted in 6 cm diameter plastic pots and maintained in the greenhouse.
(§2) 2. When the primary leaf is fully expanded in the case of cereals or several leaves are present in the case of dicots, formulated test compounds are sprayed with a three nozzle overhead fungicide sprayer to near run-off. Alternatively, a single nozzle overhead track sprayer is used for application of the compounds to cereals at a rate of 200 l/ha. Plants are then allowed to air-dry.
(§3) 3. Inoculation precedes treatment in the case of curative evaluations and follows treatment in case of residual evaluations. For inoculation of powdery mildew disease, plants are set up on greenhouse benches with bottom watering mats and inoculated by dusting them with conidia from infected plants. Between inoculation and treatment for curative evaluations and between treatment and inoculation for residual evaluations, plants are maintained in the greenhouse with bottom watering.
(§4) 4. Disease on the foliage as percent leaf area with disease symptoms/signs is evaluated about 7 days after inoculation. In the case of wheat, the tips and bases of the leaves are excluded from the evaluation. [formula]
(§5) 1. Technical compounds are formulated in a solvent/surfactant system consisting of 5% acetone and 0.05% Tween 20 in deionized water. Compounds are dissolved in acetone prior to addition of the water; the Tween 20 can be added through either the acetone or the water. Dilutions are made using the solvent/surfactant system. Formulated compounds are prepared using deionized water.
(§6) 2. Two kinds of controls are included: Plants treated with the solvent/surfactant solution and inoculated (Solvent Blank). Untreated plants which are inoculated (Inoculated Control).
(§7) Assessments of the diseases took place at the indicated day after the application of the compounds. Per cent infected leaf area infected was evaluated. The efficacy of the compounds/compounds mixtures to control the diseases was calculated by using the formula given above under item 4: […]
(§8) Synergy was calculated using the % disease control values of specific treatments for the two COLBY formula given hereinabove
Fungicidal efficacy of the mixture of (S)-Azolopyrimidine C in admixture with Fenhexamid (2 days curative) against Blumeria graminis on barley. The tank mixes were obtained from technical material of (S)-Azolopyrimidine C and Fenhexamid.
Fungicidal efficacy of the mixture of (S)-Azolopyrimidine C in admixture with Azoxystrobin or Trifloxystrobin (2 days curative) against Blumeria graminis on barley. The tank mixes were obtained from technical material of (S)-Azolopyrimidine C and Azoxystrobin or Trifloxystrobin.

Botrytis cinerea = assay: Apple fruit Botrytis test, Botrytis cinerea on apple fruits, 3 day residual
Procedure: 1. Apples (Malus X domestica Borkh.) variety Golden Delicious are disinfected by washing them briefly in 70% ethanol. After drying the apples are marked with four short equal-distant lines indicating the positions to be wounded.
2. Corresponding with the marks, four holes are poked around the apple equator with a pipette tip. 10 μl of the treatment solution are pipetted into each hole.
3. Three hours after application, 10 μl of a conidial suspension of Botrytis cinerea are pipetted into each. For incubation, the treated/inoculated apples are set up for five days.
4. Disease occurs as rotten apple tissue surrounding the inoculated wounds. The diameter of the rotten zone around each wound is measured.
1. Technical compounds are formulated in a solvent system consisting of 5% acetone and 0.05% Tween 20 in deionized water. Compounds are dissolved in acetone prior to dilution with water. Formulated compounds are prepared using deionized water.
2. Three kinds of controls are included:
Assessments of the diseases took place at the indicated day after the application of the compounds. Per cent infected leaf area infected was evaluated. The efficacy of the compounds/compounds mixtures to control the diseases was calculated by using the formula: [formula]
as §8
Fungicidal efficacy of the mixture of Azolopyrimidine A+vinclozolin (3 day residual) against Botrytis cinerea on apple fruits The tank mix was obtained from technical material of Azolopyrimidine A and a WG formulation containing 500 g vinclozolin per kg.
Fungicidal efficacy of the mixture of Azolopyrimidine A+cyprodinil (3 day residual) against Botrytis cinerea on apple fruits The tank mix was obtained from technical material of Azolopyrimidine A and a WG formulation containing 750 g cyprodinil per kg.
Fungicidal efficacy of the mixture of Azolopyrimidine A+benomyl (3 day residual) against Botrytis cinerea on apple fruits The tank mix was obtained from technical material of Azolopyrimidine A and a WP formulation containing 500 g benomyl per kg.

Puccinia recondita = assay: Greenhouse, Puccinia recondita on wheat, 1 day residual; settings: for pest or weed control at 0.06 ppm / pest or weed control at 0.25 ppm / pest or weed control at 1 ppm / pest or weed control at 4 ppm: Puccinia recondita, read-out: Observed Efficacy
Text: (§9) The fungicides are applied in single treatments, or in a combination comprising an azolopyrimidine of formula I and a compound selected from the classes (A), (B) and (C) as defined above. The compounds are applied in form of an aqueous spray mix obtained from a concentrated formulation or the technical material.
as §1, §2, §3
For inoculation of non-powdery mildew diseases, an aqueous spore suspension of the pathogen is applied to the plant and the plants are kept 1-2 days in a moist infection chamber before being returned to the greenhouse where they are maintained by bottom watering.
as §4, §5, §6, §7, §8
Fungicidal efficacy of the mixture of Azolopyrimidine C+metconazole (1 day residual) against Puccinia recondita on wheat The tank mix was obtained from a SC formulation containing 100 g Azolopyrimidine C per liter and an EC containing 100 g metconazole per liter. […]
Fungicidal efficacy of the mixture of Azolopyrimidine C+fluazinam (1 day residual) against Puccinia recondita on wheat The tank mix was obtained from technical material of Azolopyrimidine C and a SC formulation containing 500 g fluazinam per liter. […]

Blumeria graminis [2] = assay: Greenhouse, Blumeria graminis on wheat, 1 day residual
Text: as §9, §1, §2, §3, §4, §5, §6, §7, §8
Fungicidal efficacy of the mixture of Azolopyrimidine C+quinoxyfen (1 day residual)) against Blumeria graminis on wheat The tank mix was obtained from technical material of Azolopyrimidine C and quinoxyfen.
Fungicidal efficacy of the mixture of Azolopyrimidine C+metalaxyl (1 day residual) against Blumeria graminis on wheat The tank mix was obtained from technical material of Azolopyrimidine C and metalaxyl.
Fungicidal efficacy of the mixture of Azolopyrimidine C+famoxadone (1 day residual) against Blumeria graminis on wheat The tank mix was obtained from technical material of Azolopyrimidine C and famoxadone.

CC1(C(=O)Nc2ccc(O)c(Cl)c2Cl)CCCCC1 [Fenhexamid]
Observed Efficacy (Blumeria graminis [1]; dose rate 0.74 ppm): 0% | Observed Efficacy (Blumeria graminis [1]; dose rate 2.2 ppm): 0% | Observed Efficacy (Blumeria graminis [1]; dose rate 6.7 ppm): 0% | Observed Efficacy (Blumeria graminis [1]; dose rate 20 ppm): 1% | Observed Efficacy (Blumeria graminis [1]; dose rate 60 ppm): 7% | Observed Efficacy (Blumeria graminis [1]; dose rate 180 ppm): 39%

C=CC1(C)OC(=O)N(c2cc(Cl)cc(Cl)c2)C1=O (centres unmarked) [vinclozolin]
Observed Efficacy (Botrytis cinerea; Example 4, dose rate 10 ppm): 8% | Observed Efficacy (Botrytis cinerea; Example 7, dose rate 1 ppm): 0% | Observed Efficacy (Botrytis cinerea; Example 7, dose rate 10 ppm): 17%

C[C@@]1(c2ccc(Oc3ccccc3)cc2)OC(=O)N(Nc2ccccc2)C1=O (racemic) [famoxadone]
pest or weed control at 0.06 ppm (Puccinia recondita; Example 19, dose rate 0.06 ppm): 0% | pest or weed control at 0.25 ppm (Puccinia recondita; Example 19, dose rate 0.25 ppm): 0% | pest or weed control at 1 ppm (Puccinia recondita; Example 19, dose rate 1 ppm): 31% | pest or weed control at 4 ppm (Puccinia recondita; Example 19, dose rate 4 ppm): 61% | Observed Efficacy (Blumeria graminis [2]; Example 18, dose rate 0.06 ppm): 0% | Observed Efficacy (Blumeria graminis [2]; Example 18, dose rate 0.25 ppm): 0% | Observed Efficacy (Blumeria graminis [2]; Example 18, dose rate 1 ppm): 0% | Observed Efficacy (Blumeria graminis [2]; Example 18, dose rate 4 ppm): 0%

CCCCCCCCCCCCNC(=N)N [dodine]
pest or weed control at 0.06 ppm (Puccinia recondita): 0%

Fc1ccc(Oc2ccnc3cc(Cl)cc(Cl)c23)cc1 [quinoxyfen]
pest or weed control at 0.06 ppm (Puccinia recondita; Example 15, dose rate 0.06 ppm): 0% | pest or weed control at 0.25 ppm (Puccinia recondita; Example 15, dose rate 0.25 ppm): 0% | pest or weed control at 1 ppm (Puccinia recondita; Example 15, dose rate 1 ppm): 0% | pest or weed control at 4 ppm (Puccinia recondita; Example 15, dose rate 4 ppm): 0% | Observed Efficacy (Blumeria graminis [2]; Example 16, dose rate 0.06 ppm): 8% | Observed Efficacy (Blumeria graminis [2]; Example 16, dose rate 0.25 ppm): 18% | Observed Efficacy (Blumeria graminis [2]; Example 16, dose rate 1 ppm): 73% | Observed Efficacy (Blumeria graminis [2]; Example 16, dose rate 4 ppm): 99%

COCC(=O)N(c1c(C)cccc1C)C(C)C(=O)OC (centres unmarked) [metalaxyl]
Observed Efficacy (Blumeria graminis [2]; Example 17, dose rate 0.06 ppm): 0% | Observed Efficacy (Blumeria graminis [2]; Example 17, dose rate 0.25 ppm): 0% | Observed Efficacy (Blumeria graminis [2]; Example 17, dose rate 1 ppm): 0% | Observed Efficacy (Blumeria graminis [2]; Example 17, dose rate 4 ppm): 0%

S1SSSSSSS1 [sulfur]
pest or weed control at 1 ppm (Puccinia recondita; Example 22, dose rate 1 ppm): 0%

CCCCNC(=O)n1c(NC(=O)OC)nc2ccccc21 [benomyl]
Observed Efficacy (Botrytis cinerea; Example 6, dose rate 1 ppm): 0% | Observed Efficacy (Botrytis cinerea; Example 6, dose rate 10 ppm): 13%

O=[N+]([O-])c1cc(C(F)(F)F)c(Cl)c([N+](=O)[O-])c1Nc1ncc(C(F)(F)F)cc1Cl [fluazinam]
pest or weed control at 0.06 ppm (Puccinia recondita; Example 14, dose rate 0.06 ppm): 0% | pest or weed control at 1 ppm (Puccinia recondita; Example 14, dose rate 1 ppm): 4% | pest or weed control at 4 ppm (Puccinia recondita; Example 14, dose rate 4 ppm): 17%

[Cl-].[Cu+2].[Cu+2].[OH-].[OH-].[OH-] [copper oxychloride]
Observed Efficacy (Puccinia recondita; Example 21, dose rate 0.06 ppm): 0%

CC1=C(C(=O)Nc2ccccc2)SCCO1 [carboxin]
pest or weed control at 0.06 ppm (Puccinia recondita): 0% | pest or weed control at 0.25 ppm (Puccinia recondita): 0% | pest or weed control at 1 ppm (Puccinia recondita): 0% | pest or weed control at 4 ppm (Puccinia recondita): 4%
